One data set has as its target T1, CRF1R receptor (Homo sapiens, UniProt P34998).
T1 construct: host or cells: CHO-K1 clone 2
T1 sequence (P34998 24-415): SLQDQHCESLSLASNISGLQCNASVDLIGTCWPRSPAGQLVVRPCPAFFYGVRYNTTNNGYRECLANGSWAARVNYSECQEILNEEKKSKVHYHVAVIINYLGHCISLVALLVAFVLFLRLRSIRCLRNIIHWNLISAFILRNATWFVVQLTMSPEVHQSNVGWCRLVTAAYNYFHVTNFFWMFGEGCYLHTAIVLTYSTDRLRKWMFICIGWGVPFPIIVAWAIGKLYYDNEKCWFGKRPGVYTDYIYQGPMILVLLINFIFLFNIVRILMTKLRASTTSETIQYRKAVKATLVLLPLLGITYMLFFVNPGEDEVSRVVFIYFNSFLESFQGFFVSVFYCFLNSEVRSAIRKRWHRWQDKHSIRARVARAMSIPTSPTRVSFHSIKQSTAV
The data set is described as follows: cAMP activity at anti-target CRF1R, CRF1R-overexpression CHO cell line (Example 9). The data set is classed as cell-based. The settings on record: CRF1R-overexpression CHO cell line; for EC50: 0% HSA; for Emax: read-out: Emax (%). Put shortly:
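Using thawed CRF1R-overexpressing CHO cells at 2000 per well, compound is applied for 30 min at RT in HBSS/HEPES buffer with IBMX. Cellular cAMP content is determined via HTRF, and percent activity is calculated against 1000 nM UCN2 defined as 100%.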

Data set [1] in a line: Solubility in buffer systems by UPLC-UV (Example 13). The data set is classed as physicochemical. Here is the method:
Prior to performing the solubility measurements, the purity of the compounds was determined through UPLC/MS. […] Therefore, solutions from solid samples were prepared in a buffer system with a concentration of 10 mg/mL compound based on the previously determined % purity.
UPLC-UV was performed after 1 hour of gentle agitation from the supernatant, which was obtained after 15 minutes of centrifugation at 2500 RCF (relative centrifugal acceleration). The solubility was determined by the comparison of the UV peak area of a 2 μL-injection of a buffered sample diluted 1:10 with a standard curve of a reference compound with known concentration. The different UV extinction coefficients of sample and reference compound were calculated based on the different amino acid sequences and considered in the concentration calculation.

In another data set the target is T2, human CRF2α receptor (Homo sapiens, UniProt Q13324).
T2 construct: expressed in transfected cells; host or cells: TeloHEAC
T2 sequence (Q13324 1-411): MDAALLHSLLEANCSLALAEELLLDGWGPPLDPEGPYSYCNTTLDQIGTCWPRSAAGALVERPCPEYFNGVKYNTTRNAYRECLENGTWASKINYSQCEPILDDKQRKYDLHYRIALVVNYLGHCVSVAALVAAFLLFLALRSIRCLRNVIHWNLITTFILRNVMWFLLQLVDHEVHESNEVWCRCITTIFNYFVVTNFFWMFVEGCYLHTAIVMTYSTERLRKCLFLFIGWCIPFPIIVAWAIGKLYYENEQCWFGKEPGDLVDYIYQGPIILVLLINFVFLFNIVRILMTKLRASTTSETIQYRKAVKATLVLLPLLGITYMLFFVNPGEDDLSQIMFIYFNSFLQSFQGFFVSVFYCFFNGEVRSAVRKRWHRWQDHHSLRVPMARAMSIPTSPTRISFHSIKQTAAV
Kind of data set: cAMP agonism at human CRF2 α receptor in TeloHEAC cells (Example 7). The data set is classed as cell-based. As to conditions: cAMP HTRF, TeloHEAC cells stably expressing human CRF2 α, 0% HSA; read-out: EC50 [nM], 0% HSA. A digest of the protocol:
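Steps: thaw and wash cells; suspend in 1×HBSS, 20 mM HEPES, 0 or 0.1% HSA, 2 mM IBMX; add compound, 30 min RT; lyse with HTRF reagents, 1 h; read 665/620 nm. EC50 calculated, E% versus 1000 nM UCN2.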

For a further data set, the system named is rat CRF2R α receptor. The data set is described as follows: cAMP agonism at rat CRF2R α receptor in A7R5 rat aortic smooth muscle cells (Example 8). The settings on record: cAMP HTRF, A7R5 rat aortic smooth muscle cell line, 0% HSA. The data set is classed as cell-based. Put shortly: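 Potency (EC50) is the concentration reaching half-maximal activation, with responses scaled so that 1000 nM urocortin 2 equals 100%. Intracellular cAMP was quantified by homogeneous time-resolved fluorescence at 665/620 nm, 1 h after lysis-buffer reagents. Compound stimulation lasted 30 min at room temperature on 2000 IBMX-treated (2 mM) cells per well in HEPES-buffered HBSS.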
A general note: Time-resolved FRET reads energy transfer from a long-lived donor to a nearby acceptor.

[2] abbreviates: pH 4.5, Solubility in Buffer A [mg/ml].
[3] abbreviates: pH 7.4, Solubility in Buffer C [mg/ml].
[4] abbreviates: pH 4.5, Solubility in Buffer B [mg/ml].

In brackets after ≈: the same amount, converted by molar mass. Starred links: 1 amine or outer side, 2 acyl side, 3 side chain; linkers in the order of their positions; H or OH if unused. Non-standard residues stand in square brackets, D forms with d. Residues, ends and D or L forms follow the SMILES beside them. Groups on a side chain read outwards from the residue. *: point of attachment. γGlu = O=C(O)[C@H](CCC(=O)[*:2])N[*:1]; Palmitoyl = CCCCCCCCCCCCCCCC(=O)*; Aib = CC(C)(N)C(=O)O

From patent US12679878B2, “CRF2 receptor agonists and their use in therapy” (SANOFI, priority 2020, dated 2026) come the findings set out here.

In general, EC50 refers to the concentration that produces a half-maximal response. For orientation: Emax means the greatest response seen or fitted, relative to the assay's reference. Usually solubility stands for how much of the substance goes into solution per volume. A low value points to little dissolved substance.

As to `CCCCCCCCCCCCCCCC(=O)N[C@@H](CCC(=O)NCCCC[C@H](NC(=O)[C@@H](NC(=O)[C@H](CCCCN)NC(=O)[C@@H](NC(=O)[C@@H]1CCCN1C(=O)[C@@H](NC(=O)[C@H](CC(=O)O)NC(=O)[C@H](CC(C)C)NC(=O)[C@H](CO)NC(=O)[C@H](CC(C)C)NC(=O)[C@@H](NC(=O)[C@@H](N)Cc1ccccc1)[C@@H](C)O)C(C)C)[C@@H](C)O)[C@@H](C)CC)C(=O)N[C@@H](CCC(N)=O)C(=O)N[C@@H](CCCCN)C(=O)N[C@@H](CC(C)C)C(=O)N[C@@H](CC(C)C)C(=O)N[C@@H](CCCCN)C(=O)N[C@@H](CCC(N)=O)C(=O)N[C@@H](CCC(=O)O)C(=O)N[C@@H](CCCCN)C(=O)N[C@@H](CCC(N)=O)C(=O)N[C@@H](CCCNC(=N)N)C(=O)N[C@@H](CCCCN)C(=O)N[C@@H](CCC(N)=O)C(=O)N[C@@H](CCCCN)C(=O)N[C@@H](CCC(N)=O)C(=O)N[C@@H](CCCCN)C(=O)N[C@@H](C)C(=O)N[C@@H](CCCCN)C(=O)N[C@H](C(=O)N[C@@H](CC(N)=O)C(=O)N[C@@H](C)C(=O)N[C@@H](CCCCN)C(=O)N[C@H](C(=O)N[C@@H](CC(C)C)C(=O)N[C@@H](C)C(=O)N[C@@H](CCCNC(=N)N)C(=O)N[C@H](C(N)=O)C(C)C)[C@@H](C)CC)[C@@H](C)O)C(=O)O` [compound 14] (H-FTLSLDVPTKIK([γGlu-Palmitoyl])QKLLKQEKQRKQKQKAKTNAKILARV-NH2; N-terminus assumed), the results for the EC50 at CRF1R receptor and on human CRF2α receptor were greater than 1000 nM and 0.18 nM, respectively. Besides, on CRF1R receptor, the Emax stood at 14.1%. Further, the figures for the solubility at 1 h in data set [1] (setting [2]) and in data set [1] (setting [3]) were greater than 9100 µg/mL and greater than 8700 µg/mL, respectively.

In the case of `CCCCCCCCCCCCCCCC(=O)N[C@@H](CCC(=O)NCCCC[C@H](NC(=O)[C@H](CC(C)C)NC(=O)[C@H](CCCCN)NC(=O)[C@@H](NC(=O)[C@@H]1CCCN1C(=O)[C@H](NC(=O)[C@H](CC(=O)O)NC(=O)[C@H](CC(C)C)NC(=O)[C@H](CO)NC(=O)[C@H](CC(C)C)NC(=O)[C@@H](NC(=O)[C@@H](N)[C@@H](C)CC)C(C)C)C(C)C)[C@@H](C)O)C(=O)N[C@@H](CCC(N)=O)C(=O)N[C@@H](CCCCN)C(=O)N[C@@H](CC(C)C)C(=O)N[C@@H](CC(C)C)C(=O)N[C@@H](CCCCN)C(=O)N[C@@H](CCC(N)=O)C(=O)N[C@@H](CCC(=O)O)C(=O)N[C@@H](CCCNC(=N)N)C(=O)N[C@@H](CCC(N)=O)C(=O)N[C@@H](CCCNC(=N)N)C(=O)N[C@@H](CCCCN)C(=O)N[C@@H](CCC(=O)O)C(=O)N[C@@H](CCCNC(=N)N)C(=O)N[C@@H](CCC(=O)O)C(=O)N[C@@H](CCC(N)=O)C(=O)N[C@@H](C)C(=O)N[C@@H](CCC(=O)O)C(=O)N[C@@H](CCCCN)C(=O)N[C@@H](CC(N)=O)C(=O)N[C@@H](CCCCN)C(=O)N[C@@H](CCCNC(=N)N)C(=O)N[C@H](C(=O)N[C@@H](CC(C)C)C(=O)N[C@@H](CCC(=O)O)C(=O)N[C@@H](CCCNC(=N)N)C(=O)N[C@H](C(N)=O)C(C)C)[C@@H](C)CC)C(=O)O` [compound 18] (H-IVLSLD[dV]PTKLK([γGlu-Palmitoyl])QKLLKQERQRKEREQAEKNKRILERV-NH2), the EC50 with rat CRF2R α receptor amounted to 0.02 nM; on human CRF2α receptor it was 0.03 nM. For the same compound, the solubility at 1 h is greater than 10200 µg/mL in data set [1] (setting [2]) and greater than 9300 µg/mL in data set [1] (setting [4]).

Turning to `CCCCCCCCCCCCCCCC(=O)N[C@@H](CCC(=O)NCCCC[C@H](NC(=O)[C@H](CC(C)C)NC(=O)[C@H](CCCCN)NC(=O)[C@@H](NC(=O)[C@@H]1CCCN1C(=O)[C@H](NC(=O)[C@H](CC(=O)O)NC(=O)[C@H](CC(C)C)NC(=O)[C@H](CO)NC(=O)[C@H](CC(C)C)NC(=O)[C@@H](NC(=O)[C@@H](N)[C@@H](C)CC)C(C)C)C(C)C)[C@@H](C)O)C(=O)N[C@@H](CCC(N)=O)C(=O)N[C@@H](CCCCN)C(=O)N[C@@H](CC(C)C)C(=O)N[C@@H](CC(C)C)C(=O)N[C@@H](CCCCN)C(=O)N[C@@H](CCC(N)=O)C(=O)N[C@@H](CCC(=O)O)C(=O)N[C@@H](CCCNC(=N)N)C(=O)N[C@@H](CCC(N)=O)C(=O)N[C@@H](CCCNC(=N)N)C(=O)NC(C)(C)C(=O)N[C@@H](CCC(=O)O)C(=O)N[C@@H](CCCNC(=N)N)C(=O)N[C@@H](CCC(=O)O)C(=O)N[C@@H](CCC(N)=O)C(=O)N[C@@H](C)C(=O)N[C@@H](CCC(=O)O)C(=O)N[C@@H](CCCCN)C(=O)N[C@@H](CC(N)=O)C(=O)N[C@@H](CCCCN)C(=O)N[C@@H](CCCNC(=N)N)C(=O)N[C@H](C(=O)N[C@@H](CC(C)C)C(=O)N[C@@H](CCC(=O)O)C(=O)N[C@@H](CCCNC(=N)N)C(=O)N[C@H](C(N)=O)C(C)C)[C@@H](C)CC)C(=O)O` [compound 19] (H-IVLSLD[dV]PTKLK([γGlu-Palmitoyl])QKLLKQERQR[Aib]EREQAEKNKRILERV-NH2; N-terminus assumed), the Emax on CRF1R receptor was found to be 57.4%. For the same compound, the solubility at 1 h in data set [1] (setting [2]) is greater than 10200 µg/mL; in data set [1] (setting [4]) it was greater than 10800 µg/mL; in data set [1] (setting [3]), 5700 µg/mL (≈ 1150 µM). Further, the EC50 on human CRF2α receptor stood at 0.01 nM.

With `CCCCCCCCCCCCCCCC(=O)N[C@@H](CCC(=O)NCCCC[C@H](NC(=O)[C@H](CC(C)C)NC(=O)[C@H](CCCCN)NC(=O)[C@@H](NC(=O)[C@@H]1CCCN1C(=O)[C@H](NC(=O)[C@H](CC(=O)O)NC(=O)[C@H](CC(C)C)NC(=O)[C@H](CO)NC(=O)[C@H](CC(C)C)NC(=O)[C@@H](NC(=O)[C@@H](N)[C@@H](C)CC)C(C)C)C(C)C)[C@@H](C)O)C(=O)N[C@@H](CCC(N)=O)C(=O)N[C@@H](CCCCN)C(=O)N[C@@H](CC(C)C)C(=O)N[C@@H](CC(C)C)C(=O)N[C@@H](CCCCN)C(=O)N[C@@H](CCC(N)=O)C(=O)N[C@@H](CCC(=O)O)C(=O)N[C@@H](CCCNC(=N)N)C(=O)N[C@@H](CCC(N)=O)C(=O)N[C@@H](CCCNC(=N)N)C(=O)N[C@@H](CCCCN)C(=O)N[C@@H](CCC(=O)O)C(=O)N[C@@H](CCCNC(=N)N)C(=O)N[C@@H](CCC(=O)O)C(=O)N[C@@H](CCC(N)=O)C(=O)N[C@@H](C)C(=O)N[C@@H](CCC(=O)O)C(=O)N[C@@H](CCCCN)C(=O)N[C@@H](CC(N)=O)C(=O)N[C@H](C(=O)N[C@@H](CCCNC(=N)N)C(=O)N[C@H](C(=O)N[C@@H](CC(C)C)C(=O)N[C@@H](CCC(=O)O)C(=O)N[C@@H](CCCNC(=N)N)C(=O)N[C@H](C(N)=O)C(C)C)[C@@H](C)CC)C(C)C)C(=O)O` [compound 32] (H-IVLSLD[dV]PTKLK([γGlu-Palmitoyl])QKLLKQERQRKEREQAEKNVRILERV-NH2), at CRF1R receptor, the EC50 was greater than 1000 nM and the Emax is 27%. In data set [1] (setting [3]), this compound yielded a solubility at 1 h of 8600 µg/mL (≈ 1730 µM). The EC50 on human CRF2α receptor was found to be 0.01 nM.
